This is an account of results in patent US9635859B2, “Pesticidal compositions and processes related thereto” (Dow AgroSciences LLC, priority 2012, dated 2017).

The experiment relates to Corn Earworm (Helicoverpa zea). Briefly: Bioassays on CEW, 128-well diet tray assay. The experiment is classed as in vivo. The note with it: percent mortality, second instar larvae, 50 μg/cm^2 on artificial diet, five to seven days, 25° C.; Table 3. Here is the method:
Certain molecules disclosed in this document were tested against BAW and CEW and CL using procedures described in the following examples. In the reporting of the results, the “BAW & CEW & CL Rating Table” was used (See Table Section).
Bioassays on CEW (Helicoverpa zea)
Bioassays on CEW were conducted using a 128-well diet tray assay. one to five second instar CEW larvae were placed in each well (3 mL) of the diet tray that had been previously filled with 1 mL of artificial diet to which 50 μg/cm^2 of the test compound (dissolved in 50 μL of 90:10 acetone-water mixture) had been applied (to each of eight wells) and then allowed to dry. Trays were covered with a clear self-adhesive cover, and held at 25° C., 14:10 light-dark for five to seven days. Percent mortality was recorded for the larvae in each well; activity in the eight wells was then averaged. The results are indicated in the table entitled “Table 3: Assay Results” (See Table Section).

As for `O=C(NCc1ccc(/C=C/C(c2cc(Cl)c(Cl)c(Cl)c2)C(F)(F)F)cc1Cl)Oc1ccccc1Cl` (stereo not shown) [CC40], the “CEW Rating” value was “A (50-100)”.
